PMC10485003, “Antibiotic hyper-resistance in a class I aminoacyl-tRNA synthetase with altered active site signature motif” (Nature Communications, 2023)
Several values for one entry are separate records, joined by “and”; a condition that tells them apart may be missing. Equal entries are not always repeated.

Tested on: W130Q PmIleRS2
Assay: ATP-PPi exchange assay, mupirocin inhibition of amino acid activation
Format: biochemical, Priestia (Bacillus) megaterium
Conditions: for vo (initial enzyme velocity): Replica 1-3
Procedure: L-Ile and ATP concentrations ranged from 1/10 KM to 10 KM values. When measuring the KI towards one of the substrates, the other was held in saturation (concentrations at least 10 KM). The aliquots of the reaction mixture (1–2.5 μl) were quenched in 2 volumes of 500 mM NaOAc pH = 4.5, 0.1% SDS, and formed ^32P-ATP was separated from the remaining ^32P-PPi by thin-layer chromatography on Polygram CEL 300 PEI UV254 TLC plates (Macherey-Nagel, cat: 801063) using 750 mM KH2PO4 pH=3.5, 4 M urea buffer. Visualization and quantification of the signals was performed using a Typhoon Phosphoimager 5 (General Electric) and accompanying ImageQuant™ TL software (SV: 10.2). The kinetic constants were determined using a global fit option of the competitive inhibition model of GraphPad Prism 6 software (SV: 6.01). All experiments were performed in triplicates. The kcat was determined by dividing the maximal velocity, VM, with the used enzyme concentration.
Source data are provided as a Source Data file. Data are presented as the average value
± SD of three independent experiments. b) A 2Fo-Fc Fourier difference map of the W130Q-HVGH-PmIleRS2:Ile-AMS […]

For `C/C(=C\C(=O)OCCCCCCCCC(=O)O)C[C@@H]1OC[C@H](C[C@@H]2O[C@H]2[C@@H](C)[C@H](C)O)[C@@H](O)[C@H]1O` [mupirocin], the “vo (initial enzyme velocity)” value (c (mupirocin) = 1.0 μM, c (ATP) 5.0 mM, raw data for KI(MUP) towards ATP) was 0.02357 mM/min and 0.02647 mM/min and 0.02323 mM/min, the “vo (initial enzyme velocity)” value (c (mupirocin) = 1.0 μM, c (ATP) 10.0 mM, raw data for KI(MUP) towards ATP) was 0.0305 mM/min and 0.03243 mM/min and 0.02895 mM/min and the “vo (initial enzyme velocity)” value (c (mupirocin) = 1.0 μM, c (ATP) 15.0 mM, raw data for KI(MUP) towards ATP) was 0.0343 mM/min and 0.0357 mM/min and 0.0344 mM/min. For the same compound, the “vo (initial enzyme velocity)” value (c (mupirocin) = 1.0 μM, c (ATP) 25.0 mM, raw data for KI(MUP) towards ATP) was 0.03769 mM/min and 0.03939 mM/min and 0.0387 mM/min, the “vo (initial enzyme velocity)” value (c (mupirocin) = 1.0 μM, c (Ile) 10.0 μM, raw data for KI(MUP) towards Ile) was 0.0192 mM/min and the “vo (initial enzyme velocity)” value (c (mupirocin) = 1.0 μM, c (Ile) 20.0 μM, raw data for KI(MUP) towards Ile) was 0.02795 mM/min and 0.02585 mM/min and 0.02685 mM/min. The “vo (initial enzyme velocity)” value (c (mupirocin) = 1.0 μM, c (Ile) 40.0 μM, raw data for KI(MUP) towards Ile) was 0.03537 mM/min and 0.0321 mM/min and 0.03467 mM/min, the “vo (initial enzyme velocity)” value (c (mupirocin) = 1.0 μM, c (Ile) 80.0 μM, raw data for KI(MUP) towards Ile) was 0.04151 mM/min and 0.04237 mM/min and 0.04366 mM/min and the “vo (initial enzyme velocity)” value (c (mupirocin) = 1.0 μM, c (Ile) 120.0 μM, raw data for KI(MUP) towards Ile) was 0.0461 mM/min and 0.04503 mM/min and 0.04686 mM/min. The “vo (initial enzyme velocity)” value (c (mupirocin) = 5.0 μM, c (ATP) 5.0 mM, raw data for KI(MUP) towards ATP) was 0.0136 mM/min and 0.01356 mM/min and 0.01125 mM/min, the “vo (initial enzyme velocity)” value (c (mupirocin) = 5.0 μM, c (ATP) 10.0 mM, raw data for KI(MUP) towards ATP) was 0.021 mM/min and 0.0203 mM/min and 0.0182 mM/min and the “vo (initial enzyme velocity)” value (c (mupirocin) = 5.0 μM, c (ATP) 15.0 mM, raw data for KI(MUP) towards ATP) was 0.02537 mM/min and 0.0244 mM/min and 0.02261 mM/min. The “vo (initial enzyme velocity)” value (c (mupirocin) = 5.0 μM, c (ATP) 25.0 mM, raw data for KI(MUP) towards ATP) was 0.02943 mM/min and 0.02877 mM/min and 0.02783 mM/min, the “vo (initial enzyme velocity)” value (c (mupirocin) = 5.0 μM, c (Ile) 10.0 μM, raw data for KI(MUP) towards Ile) was 0.00903 mM/min and 0.00774 mM/min and 0.00698 mM/min and the “vo (initial enzyme velocity)” value (c (mupirocin) = 5.0 μM, c (Ile) 20.0 μM, raw data for KI(MUP) towards Ile) was 0.01459 mM/min and 0.01343 mM/min and 0.013 mM/min. The “vo (initial enzyme velocity)” value (c (mupirocin) = 5.0 μM, c (Ile) 40.0 μM, raw data for KI(MUP) towards Ile) was 0.0221 mM/min and 0.01963 mM/min and 0.02145 mM/min, the “vo (initial enzyme velocity)” value (c (mupirocin) = 5.0 μM, c (Ile) 80.0 μM, raw data for KI(MUP) towards Ile) was 0.02978 mM/min and 0.02747 mM/min and 0.02888 mM/min and the “vo (initial enzyme velocity)” value (c (mupirocin) = 5.0 μM, c (Ile) 120.0 μM, raw data for KI(MUP) towards Ile) was 0.03377 mM/min. For the same compound, the “vo (initial enzyme velocity)” value (c (mupirocin) = 10.0 μM, c (ATP) 5.0 mM, raw data for KI(MUP) towards ATP) was 0.00715 mM/min and 0.00752 mM/min and 0.00698 mM/min, the “vo (initial enzyme velocity)” value (c (mupirocin) = 10.0 μM, c (ATP) 10.0 mM, raw data for KI(MUP) towards ATP) was 0.01301 mM/min and 0.0137 mM/min and 0.0124 mM/min and the “vo (initial enzyme velocity)” value (c (mupirocin) = 10.0 μM, c (ATP) 15.0 mM, raw data for KI(MUP) towards ATP) was 0.0168 mM/min and 0.01667 mM/min and 0.01548 mM/min. The “vo (initial enzyme velocity)” value (c (mupirocin) = 10.0 μM, c (ATP) 25.0 mM, raw data for KI(MUP) towards ATP) was 0.02198 mM/min and 0.0226 mM/min and 0.02035 mM/min, the “vo (initial enzyme velocity)” value (c (mupirocin) = 10.0 μM, c (Ile) 20.0 μM, raw data for KI(MUP) towards Ile) was 0.00596 mM/min and 0.0067 mM/min and 0.0071 mM/min and the “vo (initial enzyme velocity)” value (c (mupirocin) = 10.0 μM, c (Ile) 40.0 μM, raw data for KI(MUP) towards Ile) was 0.01336 mM/min and 0.01164 mM/min and 0.01202 mM/min. For the same compound, the “vo (initial enzyme velocity)” value (c (mupirocin) = 10.0 μM, c (Ile) 80.0 μM, raw data for KI(MUP) towards Ile) was 0.02022 mM/min and 0.01917 mM/min and 0.021 mM/min, the “vo (initial enzyme velocity)” value (c (mupirocin) = 10.0 μM, c (Ile) 120.0 μM, raw data for KI(MUP) towards Ile) was 0.0257 mM/min and 0.02427 mM/min and 0.02578 mM/min and the “vo (initial enzyme velocity)” value (c (mupirocin) = 25.0 μM, c (ATP) 5.0 mM, raw data for KI(MUP) towards ATP) was 0.00415 mM/min and 0.00472 mM/min and 0.00553 mM/min. The “vo (initial enzyme velocity)” value (c (mupirocin) = 25.0 μM, c (ATP) 10.0 mM, raw data for KI(MUP) towards ATP) was 0.0064 mM/min and 0.00737 mM/min and 0.0088 mM/min, the “vo (initial enzyme velocity)” value (c (mupirocin) = 25.0 μM, c (ATP) 15.0 mM, raw data for KI(MUP) towards ATP) was 0.01013 mM/min and 0.00993 mM/min and 0.01101 mM/min and the “vo (initial enzyme velocity)” value (c (mupirocin) = 25.0 μM, c (ATP) 25.0 mM, raw data for KI(MUP) towards ATP) was 0.01337 mM/min and 0.01219 mM/min and 0.01445 mM/min. For the same compound, the “vo (initial enzyme velocity)” value (c (mupirocin) = 25.0 μM, c (Ile) 10.0 μM, raw data for KI(MUP) towards Ile) was 0.0021 mM/min and 0.00205 mM/min and 0.00211 mM/min, the “vo (initial enzyme velocity)” value (c (mupirocin) = 25.0 μM, c (Ile) 20.0 μM, raw data for KI(MUP) towards Ile) was 0.00338 mM/min and 0.00346 mM/min and the “vo (initial enzyme velocity)” value (c (mupirocin) = 25.0 μM, c (Ile) 40.0 μM, raw data for KI(MUP) towards Ile) was 0.00807 mM/min and 0.00657 mM/min and 0.00667 mM/min. For the same compound, the “vo (initial enzyme velocity)” value (c (mupirocin) = 25.0 μM, c (Ile) 80.0 μM, raw data for KI(MUP) towards Ile) was 0.012 mM/min and 0.01121 mM/min and 0.01201 mM/min, the “vo (initial enzyme velocity)” value (c (mupirocin) = 25.0 μM, c (Ile) 120.0 μM, raw data for KI(MUP) towards Ile) was 0.01558 mM/min and 0.01519 mM/min and 0.0161 mM/min and the “Ki for mupirocin compared with wild-type” value (kinetic analysis, Supplementary Fig. 8) was “remained the same”.
